Measured values reported in ChEMBL document CHEMBL5257074, “Structure Elucidation and Biosynthesis of Nannosterols A and B, Myxobacterial Sterols from Nannocystis sp. MNa10993” (J Nat Prod, 2023).
Activity calls are given as the source filed them.

Assays:
Mucor hiemalis = experiment: Antifungal activity against Mucor hiemalis DSM 2656 assessed as inhibition of fungal growth measured after 18 to 48 hrs by microbroth dilution assay; assay type: functional, organism-based; details: time 18-48 hrs
Escherichia coli [1] = experiment: Antibacterial activity against Escherichia coli JW0451-2 assessed as inhibition of bacterial growth measured after 18 to 48 hrs by microbroth dilution assay; assay type: functional, organism-based; details: time 18-48 hrs
[2] = tested on: Mycolicibacterium smegmatis; experiment: Antibacterial activity against Mycobacterium smegmatis (DSM 43756) assessed as inhibition of bacterial growth measured after 18 to 28 hrs by microbroth dilution assay; assay type: functional, organism-based; details: time 18-28 hrs
Staphylococcus aureus = experiment: Antibacterial activity against Staphylococcus aureus Newman assessed as inhibition of bacterial growth measured after 18 to 28 hrs by microbroth dilution assay; assay type: functional, organism-based; details: time 18-28 hrs
HepG2 = experiment: Antiproliferative activity against human HepG2 cells incubated for 5 days by MTT assay; assay type: functional, cell-based; details: time 5.0 day
Escherichia coli [3] = experiment: Antibacterial activity against Escherichia coli DSM 1116T assessed as inhibition of bacterial growth measured after 18 to 48 hrs by microbroth dilution assay; assay type: functional, organism-based; details: time 18-48 hrs
Pseudomonas aeruginosa = experiment: Antibacterial activity against Pseudomonas aeruginosa PA14 (DSM 19882) assessed as inhibition of bacterial growth measured after 18 to 48 hrs by microbroth dilution assay; assay type: functional, organism-based; details: time 18-48 hrs
Bacillus subtilis = experiment: Antibacterial activity against Bacillus subtilis DSM10T assessed as inhibition of bacterial growth measured after 18 to 28 hrs by microbroth dilution assay; assay type: functional, organism-based; details: time 18-28 hrs
Candida albicans = experiment: Antifungal activity against Candida albicans DSM 1665 assessed as inhibition of fungal growth measured after 18 to 48 hrs by microbroth dilution assay; assay type: functional, organism-based; details: time 18-48 hrs

Measured: Activity

C[C@H](CC[C@@H](O)C(C)(C)O)[C@H]1C[C@@H](O)[C@H]2[C@@H]3C(=O)C[C@H]4C[C@@H](O)CC[C@]4(C)[C@H]3CC[C@@]21CO
inactive: all assays above

C[C@H](CC[C@@H](O)C(C)(C)O)[C@H]1C[C@@H](O)[C@H]2[C@@H]3C(=O)C[C@H]4C[C@@H](O)CC[C@]4(C)[C@H]3CC[C@@]21C
inactive: all assays above
